Laboratory results as given in patent publication US20070166710A1, “Methods for inhibiting adipogenesis and for treating type 2 diabetes” (priority 2003, published 2007).
Numbering of substitutions follows the chain as printed.

What was measured:
Foxa-2 (transfected) = molecular target: T1, Foxa-2 (transfected) (UniProt P32182); assay: cell_activity
T1 sequence: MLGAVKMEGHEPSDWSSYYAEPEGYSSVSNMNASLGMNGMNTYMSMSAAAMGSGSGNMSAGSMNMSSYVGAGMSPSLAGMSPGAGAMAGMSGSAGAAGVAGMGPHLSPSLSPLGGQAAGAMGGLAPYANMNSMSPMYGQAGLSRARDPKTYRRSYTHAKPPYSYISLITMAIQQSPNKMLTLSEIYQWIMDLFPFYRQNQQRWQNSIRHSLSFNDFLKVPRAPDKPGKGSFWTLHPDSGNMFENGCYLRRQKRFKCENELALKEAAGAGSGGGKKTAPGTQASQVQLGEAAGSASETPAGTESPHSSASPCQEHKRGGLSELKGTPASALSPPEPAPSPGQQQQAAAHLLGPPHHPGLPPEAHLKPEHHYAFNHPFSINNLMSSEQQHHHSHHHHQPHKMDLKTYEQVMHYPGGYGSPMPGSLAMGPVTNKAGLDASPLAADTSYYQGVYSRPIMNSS

Foxa-2 expression [1] = assay: Foxa-2 expression in primary adipocytes from lean wildtype C57B6 mice, semiquantitative RT-PCR; assay type: cell-based; conditions: 60 hours; leptin 100 ng/ml, TNF-α 5 ng/ml, adiponectin 500 ng/ml, glucagon 100 nM, glucose 20 mmol/L
Experimental: (§1) Total RNA was extracted from cells and EBs using Trizol following manufacturer's instructions (Life Technologies, Inc.). […] The cDNAs provided templates for polymerase chain reactions (PCRs) using specific primers at annealing temperatures ranging between 60 and 65° C. in the presence of dNTPs, [α^-32P]dCTP, and Taq DNA polymerase. […] Primary adipocytes were isolated as described by Rodbell (1964) J. Biol. Chem. 239:375-380. […] (1995) J. Cell. Biochem. 58:435-463. The reaction was stopped by spinning through dinonyl […] oil and the radioactivity quantified by scintillation counting. […] (1995) Am. J. Physiol. 268:[…]-[…]. Fatty acid de novo synthesis was analyzed by saponification of total lipids as described by […] et al. (1978) J. […] Incorporation into lipid glycerol was calculated by subtracting fatty acid radioactive label from total lipid radioactive label. Primary adipocytes were isolated from lean wildtype C57B6 mice and cultured in MEM medium (control) or in the presence of insulin (100 nM; 24 hours and 60 hours, respectively) or rosiglitazone (50 μM), WY14,643 (100 μM), dexametason (1 μM), leptin (100 ng/ml), TNF-α (5 ng/ml), adiponectin (500 ng/ml) and glucagons (100 nM) for 60 hours. Gene expression was measured by semiquantitative RT-PCR. Steady state mRNA levels of Hprt were used as a control and indicate that each lane contains similar amounts of mRNA. Reactions were also assayed in the absence of reverse transcriptase, showing that mRNA was not contaminated with genomic DNA.

Foxa-2 expression [2] = assay: Foxa-2 expression in primary adipocytes from ob/ob mice, semiquantitative RT-PCR; assay type: cell-based; conditions: 60 hours
Experimental: as §1, with “ob/ob” for “lean wildtype C57B6”, “μM;” for “nM;”, “dexamethason” for “dexametason”, “TNF-α,” for “TNF-α”, “rnRNA.” for “mRNA.”

Foxa-2 [3] = assay: Nuclear Foxa-2 in perfused livers, immunoblotting; assay type: in vivo, mice; conditions: liver perfusion experiments
[4] = molecular target: T2, GST-Foxa-2T156A (recombinant, from E. coli BL21, pGEX-4T2) (UniProt P32182)
T2 sequence: T1 sequence with T156A

[5] = molecular target: T3, GST-Foxa-2 (recombinant, from E. coli BL21, pGEX-4T2) (UniProt P32182)
T3 sequence: T1 sequence

Foxa-2 [6] = assay: Immunofluorescence of subcellular distribution of endogenous Foxa-2 in HepG2 cells; assay type: cell-based; conditions: inhibitor in the presence of insulin (50 nM)
Experimental: Immunofluorescence microscopy. Cells were fixed for 30 minutes at room temperature with 2% paraformaldehyde. For immunofluorescent detection of Foxa-1 or Foxa-2, fixed cells were incubated with respective polyclonal antibodies (1:100) (Ruiz i Altaba et al. (1993) Mech. Dev. 44: 91-108) overnight at 4° C. After washing, the cells were treated with anti rabbit IgG secondary antibody linked to Alexa Fluor 488 (Molecular Probes). Immunofluorescent staining was visualized using laser-scanning micrsocopy. To determine whether Akt-induced phosporylation of Foxa-2 has an effect on the subcellular distribution of this transcription factor, the following experiment was performed. HepG2 cells were grown to 60% confluency and endogenous Foxa-1 and Foxa-2 proteins were visualized by immunofluorescence after staining with anti Foxa-1 and Foxa-2 antibodies. Cells were either examined in the absence or presence of insulin (50 nM) and/or Ly294002 or PD98059, and after transfection with either Akt1 or Akt2 expression vectors (FIG. 5B). […] Treatment of cells with MAPKK1 inhibitor PD98059 had no effect on insulin stimulated nuclear exclusion of Foxa-2. The subcellular distribution of Foxa-2 in cells that were stimulated with insulin and expressed a dominant negative form of Akt (Akt[…]) were resistant to nuclear exclusion. […]

Foxa-2 activity = assay: Transactivation assay, HepG2 cells transfected with Foxa-2 and pPepck-Luc or p6xCdx-TkLuc; assay type: cell-based, rat; conditions: coincubation, inhibitor 10 μM, insulin 100 nM
Experimental: Transfections and Transactivation assay. HepG2 cells were grown to 60-70% confluence in a 24-well dish and transfected with 50 ng of each reporter gene (p6xCdx-TkLuc or pPEPCK-Luc), pCMV-β-Gal as internal reference and the expression vectors for wildtype or mutant Foxa-1 and Foxa-2 and human Akt1/Akt2 using the transfection reagent Fugene6 (Roche). Cells were grown for 48 hours and luciferase activity was measured using the Luciferase Detection System (Promega). Luciferase was normalized for transfection efficiency by β-galactosidase activity.
To analyze whether Foxa-2 activity is regulated by insulin, HepG2 cells were transfected with a Foxa-2 expression vector and either plasmid pPepck-Luc or p6xCdx-TkLuc that contain a 621 bp promoter framnent of the human PEPCK gene or six Foxa-2 binding sites of the Cdx-2 gene upstream of a minimal promoter and the luciferase gene, respectively.

Pepck, G6pc and Igfbp-1 = assay: mRNA levels of Foxa-2 target genes in primary hepatocytes (RT-PCR); assay type: cell-based; conditions: inhibitor together with insulin
Experimental: FIGS. 10a-d depict the effect of insulin on Foxa-2 activity. FIG. 10a is a bar graph depicting relative Foxa-2 activity in HepG2 cells transfected with an expression vector for Foxa-2 and […]-Luc (gray bars) or p6xCdx-TkLuc (black bars). Cells were treated with insulin alone or in the presence of Ly294002 or PD98059. FIG. 10b is a bar graph depicting relative Foxa-2 activity in HepG2 cells transfected with p6xCdx-TkLuc and treated with insulin alone or in the presence of Ly294002 or PD98059. […] FIG. 10d is a bar graph depicting relative Foxa-2 activity in HepG2 cells transfected with an expression vector for Foxa-1, Foxa-2, Akt or Akt[…] alone or in combination, using p6xCdx-TkLuc as reporter gene. In all experiments luciferase activity was normalized to β-Gal activity. […] Levels of mRNA were analyzed to determine whether inhibition of Foxa-2 target gene expression by insulin is controlled at a transcriptional or posttranscriptional level. The mRNA levels of Pepck, G6pc and Igfbp-1 in primary hepatocytes that were cultured either in the presence or absence of insulin, PI3-kinase or MAPKK1 inhibitors were measured.

## PEPCK promoter (621 bp) luciferase reporter
Foxa-2 (transfected); HepG2, about 6-fold in FIG. 11c
  activity (fold activation): 5

## leptin: factor with effects on adipocyte differentiation and metabolism
Foxa-2 expression [1]
  De novo expression of Foxa-2: could not be induced
Foxa-2 expression [2]
  Foxa-2 expression: unable to raise

## IL6: factor with effects on adipocyte differentiation and metabolism
Foxa-2 expression [1]
  De novo expression of Foxa-2: could not be induced
Foxa-2 expression [2]
  Foxa-2 expression: unable to raise

## Pref-1 promoter reporter, upstream Foxa element deleted
Foxa-2 (transfected); 3T3-L1 luciferase reporter
  activity (% reduction of activity): 50

## glucagon: hormone tested on Foxa-2 expression and nuclear localization
Foxa-2 expression [1]
  De novo expression of Foxa-2: could not be induced
Foxa-2 [3]
  Foxa-2 nuclear localization: does not affect
Foxa-2 expression [2]
  Foxa-2 expression: unable to raise

## Pref-1 promoter (1.3 kb) luciferase reporter
Foxa-2 (transfected); 3T3-L1 luciferase reporter
  activity (fold activation): 6

## HA-Akt (human Akt1 fused to an N-terminal HA-tag, expressed from pCMV-HA-Akt)
[4]
  phosphorylation in an in vitro kinase assay ([gamma-32P]-ATP, autoradiography): no phosphorylation could be observed using Foxa-2T156A protein as substrate
[5]
  phosphorylation in an in vitro kinase assay ([gamma-32P]-ATP, autoradiography): wildtype Foxa-2 was phosphorylated by either Akt or myrAkt

## constitutively active Akt, HA-tagged (pCMV-HA-myrAkt)
[4]
  phosphorylation in an in vitro kinase assay ([gamma-32P]-ATP, autoradiography): no phosphorylation could be observed using Foxa-2T156A protein as substrate
[5]
  phosphorylation in an in vitro kinase assay ([gamma-32P]-ATP, autoradiography): wildtype Foxa-2 was phosphorylated by either Akt or myrAkt

## TNF-α
Foxa-2 expression [1]
  De novo expression of Foxa-2: could not be induced
Foxa-2 expression [2]
  Foxa-2 expression: unable to raise

## 6xCdx-TkLuc (six Foxa-2 sites of the Cdx-2 gene)
Foxa-2 (transfected); HepG2, decreased by insulin or Akt
  activity (fold activation): 5

## COc1cccc(-c2cc(=O)c3ccccc3o2)c1N [PD98059, reference compound]
Foxa-2 [6]
  subcellular localization of endogenous Foxa-2 / insulin stimulated nuclear exclusion: no effect
Foxa-2 activity
  insulin mediated decrease of Foxa-2 activity: did not influence
Pepck, G6pc and Igfbp-1
  mRNA levels of Pepck, G6pc and Igfbp-1: significantly reduced

B1: adiponectin: factor with effects on adipocyte differentiation and metabolism (protein, UniProt Q15848 19-244, looked up)
Adiponectin: ETTTQGPGVLLPLPKGACTGWMAGIPGHPGHNGAPGRDGRDGTPGEKGEKGDPGLIGPKGDIGETGVPGAEGPRGFPGIQGRKGEPGEGAYVYRSAFSVGLETYVTIPNMPIRFTKIFYNQQNHYDGSTGKFHCNIPGLYYFAYHITVYMKDVKVSLFKKDKAMLFTYDQYQENNVDQASGSVLLHLEVGDQVWLQVYGEGERNGLYADNDNDSTFTGFLLYHDTN
Foxa-2 expression [1]
  De novo expression of Foxa-2: could not be induced
Foxa-2 expression [2]
  Foxa-2 expression: unable to raise
